Measurements as given in patent publication USRE48335E1, “Polymyxin derivatives as antimicrobial compounds” (priority 2014, dated 2020).
Values after ≈ are worked out from the molar mass of the structure shown. Positions of bridges follow the written chain, without caps; N, C: chain ends. Non-standard residues stand in square brackets, D forms with d. Residues, ends and D or L forms follow the SMILES beside them. *: point of attachment. Nonanoyl = CCCCCCCCC(=O)*; Octanoyl = CCCCCCCC(=O)*; Dab = NCC[C@H](N)C(=O)O; Abu = CC[C@H](N)C(=O)O; Dap = NC[C@H](N)C(=O)O

How the values were obtained:
[1] = tested on: K. pneumoniae FADDI-KP032; test: In vivo efficacy in mouse blood infection model (neutropenic Swiss mice); conditions: compound, free base 4 mg/kg intravenously 2 h after inoculation, blood at 4 h
Summary of the method: (§1)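 Neutropenic Swiss mice (cyclophosphamide 150 mg/kg day −4, 100 mg/kg day −1, i.p.) infected i.v. with early log-phase bacteria; 4 mg/kg free base i.v. given 2 h post-inoculation. Blood CFU by cardiac puncture 4 h post-dose; Δlog10 CFU/mL treated versus saline controls.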

[2] = tested on: A. baumannii ATCC 19606; test: as above; conditions: compound, free base 4 mg/kg intravenously 2 h after inoculation, blood at 4 h
Summary of the method: as §1

[3] = tested on: P. aeruginosa ATCC 27853; test: as above; conditions: compound, free base 4 mg/kg intravenously 2 h after inoculation, blood at 4 h
Summary of the method: as §1

[4] = tested on: Pseudomonas aeruginosa
Summary of the method: (§2)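 Read-out is the MIC, obtained by broth microdilution under CLSI guidance. Lipopeptides (TFA salt form) were diluted in cation-adjusted Mueller-Hinton broth, with polymyxin B sulphate run alongside as control.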

[5] = tested on: Klebsiella pneumoniae
Summary of the method: as §2

[6] = tested on: Acinetobacter baumannii
Summary of the method: as §2

[7] = tested on: Enterobacter cloacae
Summary of the method: as §2

Row | Compound | Δ log (Treated-Control at 4 h) [1] [log10 CFU/mL] | Δ log (Treated-Control at 4 h) [2] [log10 CFU/mL] | Δ log (Treated-Control at 4 h) [3] [log10 CFU/mL] | MIC [4] [µg/mL] | Minimum inhibitory concentration, Pa ATCC 27853 [4] [µg/mL] | Minimum inhibitory concentration, Pa FADDI-PA022 [4] [µg/mL] | Minimum inhibitory concentration, Pa FADDI-PA025 [4] [µg/mL] | MIC [5] [µg/mL] | MIC [6] [µg/mL] | Minimum inhibitory concentration, Ab A ATCC 17978 [6] [µg/mL] | Minimum inhibitory concentration, Ab ATCC 19606 [6] [µg/mL] | Minimum inhibitory concentration, Ab FADDI-AB034 [6] [µg/mL] | Minimum inhibitory concentration, Ec FADDI-EC001 [7] [µg/mL] | Minimum inhibitory concentration, Ec FADDI-EC003 [7] [µg/mL] | Minimum inhibitory concentration, Ec FADDI-EC006 [7] [µg/mL]
1 | CCCCCCCC(=O)N[C@@H](CCN)C(=O)N[C@H](C(=O)N[C@@H](CN)C(=O)N[C@H]1CCNC(=O)[C@H]([C@@H](C)O)NC(=O)[C@H](CCN)NC(=O)[C@H](CCN)NC(=O)[C@H]([C@@H](C)O)NC(=O)[C@@H](CC(C)C)NC(=O)[C@H](CCN)NC1=O)[C@@H](C)O [Compound 33] (Octanoyl-[Dab]T[Dap][Dab][Dab][dL]T[Dab][Dab]T; lactam 4-C) | −2.80 | −1.40 | −1.55 | 0.5 (≈ 0.443 µM) | 0.5 (≈ 0.443 µM) | 0.5 (≈ 0.443 µM) | 8 (≈ 7.08 µM) | <0.125 | 0.5 (≈ 0.443 µM) | 0.25 (≈ 0.221 µM) | 0.5 (≈ 0.443 µM) | 0.25 (≈ 0.221 µM) | <0.125 | <0.125 | 1 (≈ 0.885 µM)
2 | CCCCCCCC(=O)N[C@@H](CCN)C(=O)N[C@H](C(=O)N[C@@H](CN)C(=O)N[C@H]1CCNC(=O)[C@H]([C@@H](C)O)NC(=O)[C@H](CCN)NC(=O)[C@H](CCN)NC(=O)[C@H](C)NC(=O)[C@@H](CC(C)C)NC(=O)[C@H](CCN)NC1=O)[C@@H](C)O [Compound 35] (Octanoyl-[Dab]T[Dap][Dab][Dab][dL]A[Dab][Dab]T; lactam 4-C) | −3.12 | −1.60 | −3.36 | 0.5 (≈ 0.455 µM) | 0.5 (≈ 0.455 µM) | 0.5 (≈ 0.455 µM) | 16 (≈ 14.6 µM) | <0.125 | 0.5 (≈ 0.455 µM) | 0.5 (≈ 0.455 µM) | 0.5 (≈ 0.455 µM) | 0.25 (≈ 0.227 µM) | <0.125 | 0.25 (≈ 0.227 µM) | <0.125
3 | CCCCCCCC(=O)N[C@@H](CCN)C(=O)N[C@H](C(=O)N[C@@H](CN)C(=O)N[C@H]1CCNC(=O)[C@H]([C@@H](C)O)NC(=O)[C@H](CCN)NC(=O)[C@H](CCN)NC(=O)[C@H](CC)NC(=O)[C@@H](CC(C)C)NC(=O)[C@H](CCN)NC1=O)[C@@H](C)O [Compound 46] (Octanoyl-[Dab]T[Dap][Dab][Dab][dL][Abu][Dab][Dab]T; lactam 4-C) | −2.93 | −1.56 | −2.53 | 0.5 (≈ 0.449 µM) | 0.5 (≈ 0.449 µM) | 0.5 (≈ 0.449 µM) | 2 (≈ 1.8 µM) | <0.125 | 0.25 (≈ 0.225 µM) | 0.25 (≈ 0.225 µM) | 0.25 (≈ 0.225 µM) | 0.25 (≈ 0.225 µM) | <0.125 | 0.25 (≈ 0.225 µM) | <0.125
4 | CCCCCCCCC(=O)N[C@@H](CCN)C(=O)N[C@H](C(=O)N[C@@H](CN)C(=O)N[C@H]1CCNC(=O)[C@H]([C@@H](C)O)NC(=O)[C@H](CCN)NC(=O)[C@H](CCN)NC(=O)[C@H]([C@@H](C)O)NC(=O)[C@@H](CC(C)C)NC(=O)[C@H](CCN)NC1=O)[C@@H](C)O [Compound 58] (Nonanoyl-[Dab]T[Dap][Dab][Dab][dL]T[Dab][Dab]T; lactam 4-C) | −3.21 | −2.15 | −3.00 | 0.5 (≈ 0.437 µM) | 0.5 (≈ 0.437 µM) | 2 (≈ 1.75 µM) | 2 (≈ 1.75 µM) | 0.25 (≈ 0.219 µM) | 0.25 (≈ 0.219 µM) | 0.5 (≈ 0.437 µM) | 0.25 (≈ 0.219 µM) | 1 (≈ 0.875 µM) | 0.25 (≈ 0.219 µM) | 0.25 (≈ 0.219 µM) | 0.5 (≈ 0.437 µM)
